Source: publication PMC11292009, “Mapping protein binding sites by photoreactive fragment pharmacophores” (Communications Chemistry, 2024)
Entries after “also recorded” stand apart in the source; their conditions may differ.

System: T1, Kras G12D protein / SOS1 exchange domain
T1 construct: Cytoskeleton, Inc. (SOS1 exchange domain only) GE02
Test: Kras-SOS exchange assay (MANT-GDP)
Type: biochemical
Details: for normalized signal, Kras-SOS exchange (Figure 4c PhP072 irradiation): Php072 500 uM
Procedure: MANT-GDP loading assay: Kras^G12D protein was first buffer exchanged into low magnesium buffer (20 mM HEPES-NaOH (pH 7.5), 50 mM NaCl, 0.5 mM MgCl2) using a NAP5 column (catalog no.: 17-0583-1, Cytiva). The proteins were then incubated with 20-fold molar excess of N-methylanthraniloyl (MANT)-GDP (catalog no.: 69244, Sigma-Aldrich) in loading buffer (50 mM NaCl, 20 mM HEPES-NaOH [pH 7.5], 0.5 mM MgCl2, 10 mM EDTA, and 1 mM Dithiothreitol (DTT)) in a total volume of 200 μL at 20 °C for 90 min. The reaction was stopped by adding MgCl2 to a final concentration of 10 mM, then incubated at 20 °C for 30 min. The unbound MANT-GDP was removed using the NAP-5 column equilibrated with nucleotide exchange buffer (40 mM HEPES-NaOH (pH 7.5), 50 mM NaCl, 10 mM MgCl2, 2 mM DTT).
MANT-GDP exchange assay: First the MANT-GDP bound Kras G12D protein (in a final 1 μM molar concentration) was preincubated with the inhibitor molecules for 60 min. After the preincubation the samples were exposed to UV light for 10 min with a wavelength of 366 nm. The UV-treated MANT-GDP Kras-inhibitor mix was loaded into a black 384 well microplate. The nucleotide exchange reaction was initiated by adding 100 fold molar excess of GppNHp (catalog no.: G0635, Sigma-Aldrich), a non-hydrolyzable GTP analog and the SOS1 exchange domain (catalog no.: GE02, Cytoskeleton, Inc.) protein in 0.5 μM final concentration. The change in fluorescence intensity was measured every 30 s in room temperature for 60 min on an EnSpire plate reader (PerkinElmer, Inc.). The measured fluorescence values were fitted to a single exponential function by using GraphPad Prism 8 software.

Q: Which results are given for `Cc1ncc(CO)c(CNC(=O)CCC2(C)N=N2)c1O` [PhP072, Cc1ncc(CO)c(c1O)CNC(=O)CCC2(C)N=N2]?
A: normalized signal, Kras-SOS exchange (Figure 4c PhP072 irradiation) (time 30 sec): 0.9874; normalized signal, Kras-SOS exchange (Figure 4c PhP072 irradiation) (time 60 sec): 0.984; normalized signal, Kras-SOS exchange (Figure 4c PhP072 irradiation) (time 90 sec): 0.9869; normalized signal, Kras-SOS exchange (Figure 4c PhP072 irradiation) (time 120 sec): 0.9755; normalized signal, Kras-SOS exchange (Figure 4c PhP072 irradiation) (time 210 sec): 0.9893; normalized signal, Kras-SOS exchange (Figure 4c PhP072 irradiation) (time 240 sec): 1.005; normalized signal, Kras-SOS exchange (Figure 4c PhP072 irradiation) (time 270 sec): 0.9931; normalized signal, Kras-SOS exchange (Figure 4c PhP072 irradiation) (time 300 sec): 0.9815; normalized signal, Kras-SOS exchange (Figure 4c PhP072 irradiation) (time 330 sec): 0.9652; normalized signal, Kras-SOS exchange (Figure 4c PhP072 irradiation) (time 360 sec): 0.9672; normalized signal, Kras-SOS exchange (Figure 4c PhP072 irradiation) (time 390 sec): 0.9659; normalized signal, Kras-SOS exchange (Figure 4c PhP072 irradiation) (time 420 sec): 0.9589; normalized signal, Kras-SOS exchange (Figure 4c PhP072 irradiation) (time 450 sec): 0.9736; normalized signal, Kras-SOS exchange (Figure 4c PhP072 irradiation) (time 480 sec): 0.978; normalized signal, Kras-SOS exchange (Figure 4c PhP072 irradiation) (time 510 sec): 0.9558; normalized signal, Kras-SOS exchange (Figure 4c PhP072 irradiation) (time 540 sec): 0.9578; normalized signal, Kras-SOS exchange (Figure 4c PhP072 irradiation) (time 570 sec): 0.9776; normalized signal, Kras-SOS exchange (Figure 4c PhP072 irradiation) (time 600 sec): 0.972; normalized signal, Kras-SOS exchange (Figure 4c PhP072 irradiation) (time 630 sec): 0.974; normalized signal, Kras-SOS exchange (Figure 4c PhP072 irradiation) (time 660 sec): 0.9647; normalized signal, Kras-SOS exchange (Figure 4c PhP072 irradiation) (time 690 sec): 0.9564; normalized signal, Kras-SOS exchange (Figure 4c PhP072 irradiation) (time 720 sec): 0.9623; normalized signal, Kras-SOS exchange (Figure 4c PhP072 irradiation) (time 750 sec): 0.9619; normalized signal, Kras-SOS exchange (Figure 4c PhP072 irradiation) (time 780 sec): 0.9405; normalized signal, Kras-SOS exchange (Figure 4c PhP072 irradiation) (time 810 sec): 0.9601; normalized signal, Kras-SOS exchange (Figure 4c PhP072 irradiation) (time 840 sec): 0.9458; normalized signal, Kras-SOS exchange (Figure 4c PhP072 irradiation) (time 870 sec): 0.9534; normalized signal, Kras-SOS exchange (Figure 4c PhP072 irradiation) (time 900 sec): 0.9403; normalized signal, Kras-SOS exchange (Figure 4c PhP072 irradiation) (time 930 sec): 0.9459; normalized signal, Kras-SOS exchange (Figure 4c PhP072 irradiation) (time 960 sec): 0.9381; normalized signal, Kras-SOS exchange (Figure 4c PhP072 irradiation) (time 990 sec): 0.9447; normalized signal, Kras-SOS exchange (Figure 4c PhP072 irradiation) (time 1020 sec): 0.9591; normalized signal, Kras-SOS exchange (Figure 4c PhP072 irradiation) (time 1050 sec): 0.9368; normalized signal, Kras-SOS exchange (Figure 4c PhP072 irradiation) (time 1080 sec): 0.9576; normalized signal, Kras-SOS exchange (Figure 4c PhP072 irradiation) (time 1110 sec): 0.9476; normalized signal, Kras-SOS exchange (Figure 4c PhP072 irradiation) (time 1140 sec): 0.9304; normalized signal, Kras-SOS exchange (Figure 4c PhP072 irradiation) (time 1170 sec): 0.9558; normalized signal, Kras-SOS exchange (Figure 4c PhP072 irradiation) (time 1200 sec): 0.9429; normalized signal, Kras-SOS exchange (Figure 4c PhP072 irradiation) (time 1230 sec): 0.9405; normalized signal, Kras-SOS exchange (Figure 4c PhP072 irradiation) (time 1260 sec): 0.9391; normalized signal, Kras-SOS exchange (Figure 4c PhP072 irradiation) (time 1290 sec): 0.9393; normalized signal, Kras-SOS exchange (Figure 4c PhP072 irradiation) (time 1320 sec): 0.944; normalized signal, Kras-SOS exchange (Figure 4c PhP072 irradiation) (time 1350 sec): 0.9654; normalized signal, Kras-SOS exchange (Figure 4c PhP072 irradiation) (time 1380 sec): 0.9701; normalized signal, Kras-SOS exchange (Figure 4c PhP072 irradiation) (time 1410 sec): 0.9426; normalized signal, Kras-SOS exchange (Figure 4c PhP072 irradiation) (time 1440 sec): 0.9472; normalized signal, Kras-SOS exchange (Figure 4c PhP072 irradiation) (time 1470 sec): 0.9361; normalized signal, Kras-SOS exchange (Figure 4c PhP072 irradiation) (time 1500 sec): 0.939; normalized signal, Kras-SOS exchange (Figure 4c PhP072 irradiation) (time 1530 sec): 0.9519; normalized signal, Kras-SOS exchange (Figure 4c PhP072 irradiation) (time 1560 sec): 0.9436; normalized signal, Kras-SOS exchange (Figure 4c PhP072 irradiation) (time 1590 sec): 0.9444; normalized signal, Kras-SOS exchange (Figure 4c PhP072 irradiation) (time 1620 sec): 0.9461; normalized signal, Kras-SOS exchange (Figure 4c PhP072 irradiation) (time 1650 sec): 0.9444; normalized signal, Kras-SOS exchange (Figure 4c PhP072 irradiation) (time 1680 sec): 0.9402; normalized signal, Kras-SOS exchange (Figure 4c PhP072 irradiation) (time 1710 sec): 0.948; normalized signal, Kras-SOS exchange (Figure 4c PhP072 irradiation) (time 1740 sec): 0.9364; normalized signal, Kras-SOS exchange (Figure 4c PhP072 irradiation) (time 1770 sec): 0.939; normalized signal, Kras-SOS exchange (Figure 4c PhP072 irradiation) (time 1800 sec): 0.9328; normalized signal, Kras-SOS exchange (Figure 4c PhP072 irradiation) (time 1830 sec): 0.9307; normalized signal, Kras-SOS exchange (Figure 4c PhP072 irradiation) (time 1860 sec): 0.9265; normalized signal, Kras-SOS exchange (Figure 4c PhP072 irradiation) (time 1890 sec): 0.9579; normalized signal, Kras-SOS exchange (Figure 4c PhP072 irradiation) (time 1920 sec): 0.9312; normalized signal, Kras-SOS exchange (Figure 4c PhP072 irradiation) (time 1950 sec): 0.9362; normalized signal, Kras-SOS exchange (Figure 4c PhP072 irradiation) (time 1980 sec): 0.9324; normalized signal, Kras-SOS exchange (Figure 4c PhP072 irradiation) (time 2010 sec): 0.9475; normalized signal, Kras-SOS exchange (Figure 4c PhP072 irradiation) (time 2040 sec): 0.9452; normalized signal, Kras-SOS exchange (Figure 4c PhP072 irradiation) (time 2070 sec): 0.9435; normalized signal, Kras-SOS exchange (Figure 4c PhP072 irradiation) (time 2100 sec): 0.9537; normalized signal, Kras-SOS exchange (Figure 4c PhP072 irradiation) (time 2130 sec): 0.9458; normalized signal, Kras-SOS exchange (Figure 4c PhP072 irradiation) (time 2160 sec): 0.9297; normalized signal, Kras-SOS exchange (Figure 4c PhP072 irradiation) (time 2190 sec): 0.9168; normalized signal, Kras-SOS exchange (Figure 4c PhP072 irradiation) (time 2220 sec): 0.941; normalized signal, Kras-SOS exchange (Figure 4c PhP072 irradiation) (time 2250 sec): 0.934; normalized signal, Kras-SOS exchange (Figure 4c PhP072 irradiation) (time 2280 sec): 0.9076; normalized signal, Kras-SOS exchange (Figure 4c PhP072 irradiation) (time 2310 sec): 0.9404; normalized signal, Kras-SOS exchange (Figure 4c PhP072 irradiation) (time 2340 sec): 0.9263; normalized signal, Kras-SOS exchange (Figure 4c PhP072 irradiation) (time 2370 sec): 0.9501; normalized signal, Kras-SOS exchange (Figure 4c PhP072 irradiation) (time 2400 sec): 0.9106; normalized signal, Kras-SOS exchange (Figure 4c PhP072 irradiation) (time 2430 sec): 0.9173; normalized signal, Kras-SOS exchange (Figure 4c PhP072 irradiation) (time 2460 sec): 0.928; normalized signal, Kras-SOS exchange (Figure 4c PhP072 irradiation) (time 2490 sec): 0.9153; normalized signal, Kras-SOS exchange (Figure 4c PhP072 irradiation) (time 2520 sec): 0.9464; normalized signal, Kras-SOS exchange (Figure 4c PhP072 irradiation) (time 2550 sec): 0.9246; normalized signal, Kras-SOS exchange (Figure 4c PhP072 irradiation) (time 2580 sec): 0.9142; normalized signal, Kras-SOS exchange (Figure 4c PhP072 irradiation) (time 2910 sec): 0.92; normalized signal, Kras-SOS exchange (Figure 4c PhP072 irradiation) (time 2940 sec): 0.9177; normalized signal, Kras-SOS exchange (Figure 4c PhP072 irradiation) (time 2970 sec): 0.9062; normalized signal, Kras-SOS exchange (Figure 4c PhP072 irradiation) (time 3000 sec): 0.928; normalized signal, Kras-SOS exchange (Figure 4c PhP072 irradiation) (time 3030 sec): 0.9131; normalized signal, Kras-SOS exchange (Figure 4c PhP072 irradiation) (time 3060 sec): 0.9065; normalized signal, Kras-SOS exchange (Figure 4c PhP072 irradiation) (time 3090 sec): 0.9086; normalized signal, Kras-SOS exchange (Figure 4c PhP072 irradiation) (time 3120 sec): 0.9109; normalized signal, Kras-SOS exchange (Figure 4c PhP072 irradiation) (time 3150 sec): 0.9207; normalized signal, Kras-SOS exchange (Figure 4c PhP072 irradiation) (time 3180 sec): 0.8921; normalized signal, Kras-SOS exchange (Figure 4c PhP072 irradiation) (time 3210 sec): 0.9129; normalized signal, Kras-SOS exchange (Figure 4c PhP072 irradiation) (time 3240 sec): 0.8834; normalized signal, Kras-SOS exchange (Figure 4c PhP072 irradiation) (time 3270 sec): 0.9149; normalized signal, Kras-SOS exchange (Figure 4c PhP072 irradiation) (time 3300 sec): 0.9074; normalized signal, Kras-SOS exchange (Figure 4c PhP072 irradiation) (time 3330 sec): 0.9207; Effect on SOS1-mediated nucleotide exchange of KRas (prior to irradiation): little effect; Effect on SOS1-mediated nucleotide exchange of KRas (upon irradiation (366 nm, 10 min)): fully restores KRas function to the control level; also recorded: restore KRas function
